Experimental data: the CheMixHub viscosity set

Assay: xn = mol fraction of the nth substance listed
Details: 101 kPa

c1ccncc1 + O
viscosity [mPa·s]
Details	298.15 K	303.15 K	308.15 K	313.15 K	318.15 K
x1 = 0.0201	1.122	0.9952	0.8906	0.8042	0.7251
x1 = 0.0503	1.379	1.214	1.078	0.9651	0.8727
x1 = 0.0701	1.532	1.342	1.187	1.058	0.9504
x1 = 0.0999	1.725	1.505	1.325	1.175	1.05
x1 = 0.1203	1.837	1.6	1.405	1.244	1.11
x1 = 0.1499	1.972	1.713	1.501	1.326	1.18
x1 = 0.1701	2.05	1.778	1.556	1.373	1.22
x1 = 0.1999	2.139	1.853	1.619	1.426	1.266
x1 = 0.2201	2.189	1.897	1.657	1.467	1.302
x1 = 0.2502	2.235	1.934	1.688	1.485	1.316
x1 = 0.2701	2.253	1.949	1.701	1.496	1.326
x1 = 0.2999	2.265	1.96	1.711	1.505	1.334
x1 = 0.3198	2.26	1.957	1.709	1.504	1.333
x1 = 0.35	2.235	1.937	1.694	1.492	1.324
x1 = 0.4002	2.15	1.87	1.64	1.45	1.289
x1 = 0.4499	2.023	1.77	1.56	1.384	1.236
x1 = 0.5002	1.871	1.648	1.461	1.304	–
x1 = 0.5998	1.559	1.395	1.255	1.134	–
x1 = 0.7002	1.297	1.177	1.073	0.9812	–
x1 = 0.8004	1.109	1.018	0.9375	0.8659	–
x1 = 0.8999	0.983	0.9101	0.8448	0.7862	–
